Measurements from patent US7410974B2, “Halogenated Quinazolinyl nitrofurans as antibacterial agents” (Ulysses Pharmaceutical Products, Inc., priority 2003, dated 2008).
Values after ≈ are worked out from the molar mass of the structure shown. Read-outs that look alike come from different tables or passages of the source.

Assays:
[1] = test system: S. aureus MRSA COL; assay: MIC broth microdilution (NCCLS); type: cell-based, Staphylococcus aureus; details: S. aureus MRSA COL
Method in brief: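 Susceptibility determined in cation-adjusted Mueller Hinton broth using serial twofold compound dilutions and a verified 10^5-10^6 CFU/ml inoculum.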

[2] = test system: S. epidermidis ATCC 12228; assay: MIC broth microdilution (NCCLS); type: cell-based, Staphylococcus epidermidis; details: Staphylococcus epidermidis, ATCC12228; S. epidermidis ATCC 12228; read-out: MIC
Method in brief: (§1)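 Susceptibility by NCCLS microdilution: checked inoculum 10^5-10^6 CFU/ml, 24 h at 35° C, and growth assessed at 650 nm and by eye. Haemophilus was tested in HTM medium and Listeria with laked horse blood, each incubated under 5% CO2.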

[3] = test system: E. faecalis ATCC 29212; assay: MIC broth microdilution (NCCLS); type: cell-based, Enterococcus faecalis; details: E. faecalis ATCC 29212
[4] = test system: E. faecium ATCC 35667; assay: MIC broth microdilution (NCCLS); type: cell-based, Enterococcus faecium; details: Enterococcus faecium, ATCC35667, E. faecium ATCC 35667; read-out: MIC
Method in brief: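 NCCLS broth microdilution; inoculum 10^5-10^6 CFU/ml; 2-fold serial dilutions; 35° C, 24 h; A650 plus visual read. Media: MHBCA (S. saprophyticus, E. faecium), MHBCA + 2% laked horse blood (Listeria), HTM (Haemophilus), the last two under 5% CO2.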

[5] = test system: A. baumannii ATCC 19606; assay: MIC broth microdilution (NCCLS); type: cell-based, Acinetobacter baumannii; details: Acinetobacter baumannii, ATCC19606, read-out: MIC
Method in brief: as §1

[6] = test system: Y. enterocolytica ATCC 23715; assay: MIC broth microdilution (NCCLS); type: cell-based, Yersinia enterocolytica; details: Yersinia, ATCC23715, read-out: MIC
Method in brief: as §1

[7] = test system: M. smegmatis ATCC 19420; assay: MIC broth microdilution (NCCLS), fastidious bacteria; type: cell-based, Mycobacterium smegmatis; details: Mycolicibacterium smegmatis, ATCC19420, read after 48 hours
[8] = test system: E. coli MC4100; assay: MIC broth microdilution (NCCLS); type: cell-based; details: Escherichia coli; E. coli MC4100, pathotype Reference
Experimental: (§2) Minimal Inhibitory Concentration (MIC) Determination. Bacteria (primary strain panel, TABLE 1). Susceptibility tests were performed following the recommendations from the National Committee for Clinical Standards (NCCLS). The MICs were determined by a broth microdilution technique using a final volume of 100 μl of cation-adjusted Mueller Hinton Broth (MHBCA) and a bacterial inoculum of 10^5-10^6 Colony Forming Units (CFU)/ml. The inocula were verified and precisely determined by applying 10-μl drops of 10-fold dilutions onto Triptic Soy Agar plates. The CFU were counted after an incubation of 24 h at 35° C. Any experiment showing an inoculum that was more or less than 10^5-10^6 CFU/ml was rejected. Control antibiotics and test compounds were prepared at a concentration equivalent to 2-fold the highest desired final concentration. Compounds were then diluted directly in the 96-well microtiter plates by serial 2-fold dilutions using a multichannel pipette. Microtiter plates were incubated during 24 h at 35° C. and growth was recorded by using a microtiterplate reader at 650 nm as well as by visual observation. The MIC was defined as the lowest concentration of compound yielding no visible growth. […] Fastidious bacteria. The medium used for Listeria monocytogenes, Neisseria meningitidis, and Campylobacter jejuni was MHBCA containing 2% laked horse blood. The medium used for Haemophilus influenzae and Branhamella (Moraxella) catarrhalis was HTM as recommended by the NCCLS. Cultures of these fastidious bacteria were incubated at 35° C. in a 5% CO2 atmosphere. […] The medium used for Bacteroides fragilis was Wilkins Chalgren broth and growth was allowed under an anaerobic atmosphere at 35° C. for 48 hours.

[9] = test system: B. catarrhalis ATCC 8176; assay: MIC broth microdilution (NCCLS), fastidious bacteria; type: cell-based, Branhamella (Moraxella) catarrhalis; details: Moraxella catarrhalis, ATCC8176, HTM, 5% CO2
Method in brief: as §1

[10] = test system: B. fragilis ATCC 25285; assay: MIC broth microdilution (NCCLS), anaerobic; type: cell-based; details: Bacteroides fragilis, ATCC25285; B. fragilis ATCC 25285; Wilkins Chalgren broth, anaerobic, 48 hours; read-out: MIC
Experimental: as §2

[11] = test system: B. catarrhalis ATCC 8176; assay: Minimal Bactericidal Concentration (MBC); type: cell-based, Branhamella (Moraxella) catarrhalis; details: Moraxella catarrhalis, ATCC8176, 99.9% killing
Method in brief: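 Bactericidal endpoint follows the MIC read: aliquots of every well without visible growth, no fewer than five, go onto TSA. Incubation lasts exactly 24 h at 35° C. Surviving colonies are then counted.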

[12] = test system: bacteria of the primary strain panel; assay: MBCs compared with MICs over the strain panels; type: cell-based; details: most of the time, over tested strains
Experimental: Minimal Inhibitory Concentration (MIC) Determination. Bacteria (primary strain panel, TABLE 1). Susceptibility tests were performed following the recommendations from the National Committee for Clinical Standards (NCCLS). The MICs were determined by a broth microdilution technique using a final volume of 100 μl of cation-adjusted Mueller Hinton Broth (MHBCA) and a bacterial inoculum of 10^5-10^6 Colony Forming Units (CFU)/ml. The inocula were verified and precisely determined by applying 10-μl drops of 10-fold dilutions onto Triptic Soy Agar plates. The CFU were counted after an incubation of 24 h at 35° C. Any experiment showing an inoculum that was more or less than 10^5-10^6 CFU/ml was rejected. Control antibiotics and test compounds were prepared at a concentration equivalent to 2-fold the highest desired final concentration. […] Microtiter plates were incubated during 24 h at 35° C. and growth was recorded by using a microtiterplate reader at 650 nm as well as by visual observation. […]
Minimal Bactericidal Concentration (MBC). After the microtiter plates were read for the determination of the MIC, a 10-μl sample of each clear well (at least 5 wells without visible growth) was applied onto TSA plates for viable counts determination.
Petri dishes were incubated at 35° C. for exactly 24 h and bacterial colonies were counted.

[13] = Solubility in water; type: physicochemical; details: read-out: solubility in water (no visible particles)
Experimental: Solubility of Compounds V and XV. The extent of solubility of compounds was evaluated in water.

[14] = Staphylococcus aureus, MRSA, read-out: MIC
[15] = Enterococcus faecalis, ATCC29212, read-out: MIC

| Structure (SMILES) | MIC [1] | MIC [1, 14] | MIC [2] | MIC [3, 15] | MIC [4] | MIC [5] | MIC [6] | MIC [7] | MIC [8] | MIC ([3]; listed as Example I compound V) | MIC [9] | MIC [10] | MBC [11] | MBCs relative to the MICs [12] | solubility [13] |
| --- | --- | --- | --- | --- | --- | --- | --- | --- | --- | --- | --- | --- | --- | --- | --- |
| O=C1CN(/N=C/c2ccc([N+](=O)[O-])o2)C(=O)N1 [Nitrofurantoin] | 8 to 16 µg/mL | 16 µg/mL (≈ 67.2 µM) | 16 µg/mL (≈ 67.2 µM) | 8 to 16 µg/mL (≈ 33.6 to 67.2 µM) | 64 µg/mL (≈ 269 µM) | 128 µg/mL (≈ 537 µM) | 64 µg/mL (≈ 269 µM) | 64 µg/mL (≈ 269 µM) | 8 to 16 µg/mL (≈ 33.6 to 67.2 µM) | – | – | – | – | – | – |
| O=[N+]([O-])c1ccc(C=Cc2nc(Nc3ccc(O)cc3)c3cc(F)ccc3n2)o1 [Compound V, 6-fluoro-2-[2-(5-nitro-2-furyl)vinyl]-4-(p-hydroxyanilino)-quinazoline] | – | 0.015 µg/mL (≈ 0.0382 µM) | 0.03 µg/mL (≈ 0.0765 µM) | 0.03 µg/mL (≈ 0.0765 µM) | 0.06 µg/mL (≈ 0.153 µM) | 1 to 2 µg/mL (≈ 2.55 to 5.1 µM) | 0.25 µg/mL (≈ 0.637 µM) | 0.06 µg/mL (≈ 0.153 µM) | 1 µg/mL (≈ 2.55 µM) | 0.03 µg/mL (≈ 0.0765 µM) | 0.008 µg/mL (≈ 0.0204 µM) | 0.016 µg/mL (≈ 0.0408 µM) | 0.03 µg/mL (≈ 0.0765 µM) | equal to or only 2 to 4-fold higher than the MICs | 250 µg/mL (≈ 637 µM) |
